# Assay: BKC / BEZ release assay from polymer film with aqueous BPB solution
# Type: physicochemical
# Conditions: for release from 0.45% biocide coating without copolymer upon addition of the BPB solution: reference, no polymer
# Protocol: The different 5 wt % polymer formulations were supplemented with 0.45 wt % BKC and 20 μl coated to the first well of each row of a 96-well plate. After evaporation of the solvent (2-propanol), 100 μl of an aqueous BPB ([…]) solution (25×10^−3 mmol/L) was added to the coated wells and the plate was incubated for 30 seconds at room temperature. Next, the aqueous phase was removed from the well and the formation of blue BPB-BKC complexes was assessed by visual inspection. This process was repeated until blue BPB-BKC complexes were no longer observed, and the number of repeated BPB incubation steps was recorded.
# The slow release properties of the PVPM20, PVPMDM, PVPMEM and PVPDDM co-polymer formulations were verified in a BKC and a BEZ release test that were performed in 96-well plates. The different polymer formulations (i.e. PVPM20-85:15, PVPM20-80:20, PVPM20-65:35, PVPMDM-60:40, PVPMDM-75:25, PVPMEM-80:20 and PVPDDM-80:20 in 2-propanol at 2.5 wt % were supplemented with 0.45 wt % BKC or BEZ. 20 μl was coated to the first well of each row of a 96-well plate. After evaporation of the 2-propanol solvent, 100 μl of an aqueous BPB solution (25×10^−3 mmol/L) was added to the coated wells and the plate was incubated for 30 seconds at room temperature. BPB forms a blue complex with free BKC and free BEZ when it is released from the polymer film into an aqueous solution. Of note, the BPB-BKC or BPB-BEZ complex is blue, whereas the BPB solution itself is purple (20). Next, the aqueous phase was removed from the well and the formation of blue BPB-BKC or BPB-BEZ complexes was assessed by visual inspection. This process was repeated until blue BPB-BKC complexes were no longer observed, and the number of repeated BPB incubation steps was recorded.
# The number of cycles needed to release readily detectable amounts of BKC or BEZ was used as a measure to assess the BKC-retaining or BEZ-retaining properties of the different polymer formulations.
Compound,"Test2 (BEZ): Number of incubations after which BEZ was no longer detectable (0.45 wt % BEZ, 30 seconds incubations with aqueous BPB solution, room temperature)",release from 0.45% biocide coating without copolymer upon addition of the BPB solution,"Test1 (BKC): Number of incubations after which BKC was no longer detectable (0.45 wt % BKC, 30 seconds incubations with aqueous BPB solution, room temperature)"
"CC(C)(C)CC(C)(C)c1ccc(OCCOCC[N+](C)(C)Cc2ccccc2)cc1 [BEZ only, benzethonium chloride]",1x,dissolved instantaneously,–
benzalkonium chloride [BKC only],–,dissolved instantaneously,1x
